Results reported in US20250042920A1 (OCEAN UNIVERSITY OF CHINA, priority 2021, published 2025).

Experiments:
MNK1 = MNK1 (Homo sapiens, UniProt Q9BUB5); experiment: MNK1 kinase inhibition assay (LANCE Ultra kinase activity assay, PerkinElmer); type: biochemical; settings: 450 μM ATP; for IC50: five concentrations 10000-1 nM; for inhibition at 1 µM: inhibition rate at 1000 nM compound, 60 min, 25° C., read-out: Inhibitory activity(1 μM) MNK1
Description: (§1) MNK1 and MNK2 kinase inhibition assays were performed using LANCE Ultra kinase activity assay developed by PerkinElmer. […] The test steps are as follows: At 25° C., 1.00 ng MNK1 or 0.05 ng MNK2 was prepared with different concentrations (10000, 1000, 100, 10, 1 nM) of the tested compound to form a total volume of 10 μL reaction mixture (MNK1: 12.5 nM CREB, 450 μM ATP, 2 mM DTT, 1× buffer; MNK2: 12.5 nM CREB, 100 μM ATP, 2 mM DTT, 1×buffer), and incubation for 60 min. The reaction was terminated by adding 5 μL EDTA/Detection buffer and 5 μL Eu-CREB/Detection buffer. The ratio of HTRF signals at 615 nm and 665 nm was detected after 60 min of incubation. The inhibition rate was calculated by measuring the compounds at 1000 nM.
(§2) Then five different concentrations (10000, 1000, 100, 10, 1 nM) of the tested compounds were measured, and the IC50 value was calculated according to the inhibition rate fitting curve.

MNK2 = MNK2 (Homo sapiens, UniProt Q9HBH9); experiment: MNK2 kinase inhibition assay (LANCE Ultra kinase activity assay, PerkinElmer); type: biochemical; settings: 100 μM ATP; for IC50: five concentrations 10000-1 nM; for inhibition at 1 µM: inhibition rate at 1000 nM compound, 60 min, 25° C., read-out: Inhibitory activity(1 μM) MNK2
Description: as §1, §2

Chain of MNK2 (Q9HBH9 whole entry): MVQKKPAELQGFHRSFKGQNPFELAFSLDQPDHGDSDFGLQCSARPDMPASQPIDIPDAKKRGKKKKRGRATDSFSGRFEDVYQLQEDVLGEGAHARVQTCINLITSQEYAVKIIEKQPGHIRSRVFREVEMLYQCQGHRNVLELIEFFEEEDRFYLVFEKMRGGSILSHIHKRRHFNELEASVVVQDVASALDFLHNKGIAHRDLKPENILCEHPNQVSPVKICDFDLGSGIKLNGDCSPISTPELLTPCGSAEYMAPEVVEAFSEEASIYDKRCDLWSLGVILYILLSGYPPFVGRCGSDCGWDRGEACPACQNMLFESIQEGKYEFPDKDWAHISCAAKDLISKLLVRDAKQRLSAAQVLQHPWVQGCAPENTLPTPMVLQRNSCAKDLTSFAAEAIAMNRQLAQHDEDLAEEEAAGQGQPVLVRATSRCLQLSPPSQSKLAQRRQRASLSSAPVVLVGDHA
Chain of MNK1 (Q9BUB5 whole entry): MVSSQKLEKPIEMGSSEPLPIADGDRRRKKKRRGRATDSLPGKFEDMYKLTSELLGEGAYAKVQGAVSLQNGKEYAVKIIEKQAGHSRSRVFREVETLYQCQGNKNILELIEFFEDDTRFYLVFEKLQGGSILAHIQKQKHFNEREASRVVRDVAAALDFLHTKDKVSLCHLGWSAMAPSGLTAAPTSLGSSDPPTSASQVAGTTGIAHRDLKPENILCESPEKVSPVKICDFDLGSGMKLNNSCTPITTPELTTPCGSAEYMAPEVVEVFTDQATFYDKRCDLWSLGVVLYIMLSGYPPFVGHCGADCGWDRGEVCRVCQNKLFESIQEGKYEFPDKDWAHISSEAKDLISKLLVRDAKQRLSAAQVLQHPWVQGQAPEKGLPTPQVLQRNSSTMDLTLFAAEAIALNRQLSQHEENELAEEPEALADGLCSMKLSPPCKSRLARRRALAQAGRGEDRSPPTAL

Structure (SMILES)	IC50 (MNK1) [nM]	inhibition at 1 µM (MNK1) [%]	IC50 (MNK2) [nM]	inhibition at 1 µM (MNK2) [%]
COc1ccc(-c2cnc3sc(-c4ccc(C(=O)N5CCC(N(C)C)CC5)cc4)nn23)cc1 [Compound 15, (4-(dimethylamino)piperidin-1-yl)(4-(5-(4-methoxyphenyl)imidazo[2,1-b][1,3,4]thiadiazol-2-yl)phenyl)methanone]	< 50	> 75	< 50	> 75
CN1CCN(C(=O)c2ccc(-c3cn4c(-c5ccc(C#N)cc5)csc4n3)cc2)CC1 [Compound 48, 4-(6-(4-(4-methylpiperazine-1-carbonyl)phenyl)imidazo[2,1-b]thiazol-3-yl)benzonitrile]		25 to 50		25 to 50
CN1CCN(C(=O)c2ccc(-c3nn4c(-c5ccc(C#N)nc5)cnc4s3)cc2)CC1 [Compound 27, 5-(2-(4-(4-methylpiperazine-1-carbonyl)phenyl)imidazo[2,1-b][1,3,4]thiadiazol-5-yl)picolinonitrile]		25 to 50		25 to 50
CN(C)C1CCN(C(=O)c2ccc(-c3nn4c(-c5ccc(C(F)(F)F)cc5)cnc4s3)cc2)CC1 [Compound 16]	< 50	> 75	< 50	> 75
CN1CCN(C(=O)c2ccc(-c3nn4c(-c5ccc(F)cc5)cnc4s3)cc2)CC1 [Compound 18, (4-(5-(4-fluorophenyl)imidazo[2,1-b][1,3,4]thiadiazol-2-yl)phenyl)(4-methylpiperazin-1-yl)methanone]	50 to 200	> 75	< 50	> 75
O=C(c1ccc(-c2nn3c(-c4ccc(O)cc4)cnc3s2)cc1)N1CCOCC1 [Compound 3, (4-(5-(4-hydroxyphenyl)imidazo[2,1-b][1,3,4]thiadiazol-2-yl)phenyl)(morpholino)methanone]	< 50	> 75	< 50	> 75
O=C(c1ccc(-c2nn3c(-c4ccc(C(F)(F)F)c(F)c4)cnc3s2)cc1)N1CCOCC1 [Compound 9, (4-(5-(3-fluoro-4-(trifluoromethyl)phenyl)imidazo[2,1-b][1,3,4]thiadiazol-2-yl)phenyl)(morpholino)methanone]		> 75		> 75
COC(=O)c1ccc(-c2cnc3sc(-c4ccc(C(=O)N5CCOCC5)cc4)nn23)cc1 [Compound 4]		> 75		> 75
Cc1ccc(-c2cnc3sc(-c4ccc(C(=O)N5CCOCC5)cc4)nn23)cc1 [Compound 7, morpholino(4-(5-(p-tolyl)imidazo[2,1-b][1,3,4]thiadiazol-2-yl)phenyl)methanone]		> 75		> 75
CN(C)C1CCN(C(=O)c2ccc(-c3cn4c(-c5ccc(F)cc5)csc4n3)cc2)CC1 [Compound 53, (4-(dimethylamino)piperidin-1-yl)(4-(3-(4-fluorophenyl)imidazo[2,1-b]thiazol-6-yl)phenyl)methanone]		25 to 50		25 to 50
N#Cc1ccc(-c2cnc3sc(-c4ccc(C(=O)N5CCOCC5)cc4)nn23)cc1 [Compound 1, 4-(2-(4-(morpholine-4-carbonyl)phenyl)imidazo[2,1-b][1,3,4]thiadiazol-5-yl)benzonitrile]	< 50	> 75	< 50	> 75
CN1CCN(C(=O)c2ccc(-c3cn4c(-c5ccc(F)cc5)csc4n3)cc2)CC1 [Compound 49, (4-(3-(4-fluorophenyl)imidazo[2,1-b]thiazol-6-yl)phenyl)(4-methylpiperazin-1-yl)methanone]		25 to 50		25 to 50
CN1CCN(C(=O)c2ccc(-c3cn4c(-c5ccc(C(F)(F)F)cc5)csc4n3)cc2)CC1 [Compound 50, (4-methylpiperazin-1-yl)(4-(3-(4-(trifluoromethyl)phenyl)imidazo[2,1-b]thiazol-6-yl)phenyl)methanone]		25 to 50		25 to 50
CN1CCN(C(=O)c2ccc(-c3nn4c(-c5ccc(Cl)cc5)cnc4s3)cc2)CC1 [Compound 22, (4-(5-(4-chlorophenyl)imidazo[2,1-b][1,3,4]thiadiazol-2-yl)phenyl)(4-methylpiperazin-1-yl)methanone]	< 50	> 75	< 50	> 75
O=C(c1ccc(-c2nn3c(-c4ccc(CO)cc4)cnc3s2)cc1)N1CCOCC1 [Compound 8]	200 to 800	> 75	200 to 800	> 75
CN1CCN(C(=O)c2ccc(-c3cn4c(-c5ccc(Cl)cc5)csc4n3)cc2)CC1 [Compound 51, (4-(3-(4-chlorophenyl)imidazo[2,1-b]thiazol-6-yl)phenyl)(4-methylpiperazin-1-yl)methanone]		25 to 50		25 to 50
N#Cc1ccc(-c2cnc3sc(-c4ccc(C(=O)NCCN5CCCC5)cc4)nn23)cc1 [Compound 38, 4-(5-(4-cyanophenyl)imidazo[2,1-b][1,3,4]thiadiazol-2-yl)-N-(2-(pyrrolidin-1-yl)ethyl)benzamide]	< 50	> 75	< 50	> 75
N#Cc1ccc(-c2cnc3sc(-c4ccc(C(=O)NCCCN5CCOCC5)cc4)nn23)cc1 [Compound 37, 4-(5-(4-cyanophenyl)imidazo[2,1-b][1,3,4]thiadiazol-2-yl)-N-(3-morpholinopropyl)benzamide]	< 50	> 75	< 50	> 75
CN1CCN(C(=O)c2ccc(-c3nn4c(-c5ccncc5)cnc4s3)cc2)CC1 [Compound 20, (4-methylpiperazin-1-yl)(4-(5-(pyridin-4-yl)imidazo[2,1-b][1,3,4]thiadiazol-2-yl)phenyl)methanone]	200 to 800	> 75	50 to 200	> 75
N#Cc1ccc(-c2cnc3sc(-c4ccc(C(=O)NCCCCCO)cc4)nn23)cc1 [Compound 42, 4-(5-(4-cyanophenyl)imidazo[2,1-b][1,3,4]thiadiazol-2-yl)-N-(5-hydroxypentyl)benzamide]	< 50	> 75	< 50	> 75
N#Cc1ccc(-c2cnc3sc(-c4ccc(C(=O)OCCN5CCCC5)cc4)nn23)cc1 [Compound 31, 2-(pyrrolidin-1-yl)ethyl 4-(5-(4-cyanophenyl)imidazo[2,1-b][1,3,4]thiadiazol-2-yl)benzoate]		25 to 50		25 to 50
N#Cc1ccc(-c2cnc3sc(-c4ccc(C(=O)SCCO)cc4)nn23)cc1 [Compound 35, S-(2-hydroxyethyl)4-(5-(4-cyanophenyl)imidazo[2,1-b][1,3,4]thiadiazol-2-yl)benzothioate]		25 to 50		25 to 50
O=C(c1ccc(-c2nn3c(-c4ccc(C(F)(F)F)cc4)cnc3s2)cc1)N1CCOCC1 [Compound 5, morpholino(4-(5-(4-(trifluoromethyl)phenyl)imidazo[2,1-b][1,3,4]thiadiazol-2-yl)phenyl)methanone]	50 to 200	> 75	50 to 200	> 75
CN1CCN(C(=O)c2ccc(-c3nn4c(-c5ccc(C(F)(F)F)nc5)cnc4s3)cc2)CC1 [Compound 29, (4-methylpiperazin-1-yl)(4-(5-(6-(trifluoromethyl)pyridin-3-yl)imidazo[2,1-b][1,3,4]thiadiazol-2-yl)phenyl)methanone]		25 to 50		25 to 50
O=C(c1ccc(-c2nn3c(-c4ccc(F)c(F)c4)cnc3s2)cc1)N1CCOCC1 [Compound 11, (4-(5-(3,4-difluorophenyl)imidazo[2,1-b][1,3,4]thiadiazol-2-yl)phenyl)(morpholino)methanone]		> 75		> 75
CN1CCN(C(=O)c2ccc(-c3nn4c(-c5ccc([N+](=O)[O-])cc5)cnc4s3)cc2)CC1 [Compound 25, (4-methylpiperazin-1-yl)(4-(5-(4-nitrophenyl)imidazo[2,1-b][1,3,4]thiadiazol-2-yl)phenyl)methanone]	< 50	> 75	< 50	> 75
O=C(c1ccc(-c2nn3c(-c4ccc(O)c(F)c4)cnc3s2)cc1)N1CCOCC1 [Compound 10, (4-(5-(3-fluoro-4-hydroxyphenyl)imidazo[2,1-b][1,3,4]thiadiazol-2-yl)phenyl)(morpholino)methanone]	50 to 200	> 75	< 50	> 75
CN(C)C1CCN(C(=O)c2ccc(-c3cn4c(-c5ccc(C(F)(F)F)cc5)csc4n3)cc2)CC1 [Compound 54, (4-(dimethylamino)piperidin-1-yl)(4-(3-(4-(trifluoromethyl)ph-enyl)imidazo [2,1-b]thiazol-6-yl)phenyl)methanone]		25 to 50		25 to 50
